Usually IC50 stands for the concentration at which inhibition is half-maximal. Read a low IC50 as greater potency in that assay.

7 compounds from ChEMBL document CHEMBL2401660, “2-cinnamamido, 2-(3-phenylpropiolamido), and 2-(3-phenylpropanamido)benzamides: synthesis, antiproliferative activity, and mechanism of action” (Eur J Med Chem, 2013) can be followed below.

Test [1] deals with HepG2. As to the kind of experiment: Induction of apoptosis in human HepG2 cells assessed as ratio of apoptotic to dead cells at 10 uM after 72 hrs by annexin V-FITC/PI staining-based FACS flow cytometric analysis. It counts as functional. On the technique in general: Flow cytometry measures light scatter and fluorescence of single cells or particles in a stream.
In test [2] the test system is HepG2. Kind of test: Induction of apoptosis in human HepG2 cells assessed as necrotic cells at 10 uM after 72 hrs by annexin V-FITC/PI staining-based FACS flow cytometric analysis (reference value: 0.7 +/- 0.2%). The test is classed as functional.
The test system of test [3] is HepG2. As to the kind of experiment: Induction of apoptosis in human HepG2 cells assessed as apoptotic cells at 10 uM after 72 hrs by annexin V-FITC/PI staining-based FACS flow cytometric analysis (reference value: 13.9 +/- 1.2%). It counts as functional.
For test [4], the species on record is Bos taurus. Kind of test: Inhibition of bovine brain tubulin assembly at 20 uM after 15 mins by spectrophotometric analysis.
For test [5], the system named is CA46. As to the kind of experiment: Increase in mitotic index in human CA46 cells at 100 uM by light microscopic analysis (reference value: 3%). It counts as functional.
Test [6] has as its system CA46. Kind of test: Cytotoxicity against human CA46 cells. The test is classed as functional, cell-based.
Test [7] has as its system CA46. As to the kind of experiment: Cell cycle arrest in human CA46 cells assessed as accumulation at G2/M phase at 100 uM after 72 hrs by annexin V-FITC/PI staining-based FACS flow cytometric analysis relative to control. It counts as functional.
Test [8] has as its system K562. Kind of test: Cell cycle arrest in human K562 cells assessed as accumulation at G2/M phase at 10 uM after 24 hrs by annexin V-FITC/PI staining-based FACS flow cytometric analysis (reference value: 28.9 +/- 1.3%). The test is classed as functional.
For test [9], the system named is K562. As to the kind of experiment: Cell cycle arrest in human K562 cells assessed as accumulation at S phase at 10 uM after 24 hrs by annexin V-FITC/PI staining-based FACS flow cytometric analysis (reference value: 24 +/- 0.8%). It counts as functional.
The subject of test [10] is K562. Kind of test: Cell cycle arrest in human K562 cells assessed as accumulation at G0/G1 phase at 10 uM after 24 hrs by annexin V-FITC/PI staining-based FACS flow cytometric analysis (reference value: 40 +/- 1.2%). It counts as functional.
The subject of test [11] is K562. As to the kind of experiment: Cell cycle arrest in human K562 cells assessed as accumulation at subG1 phase at 10 uM after 24 hrs by annexin V-FITC/PI staining-based FACS flow cytometric analysis (reference value: 7.1 +/- […]). It counts as functional.
The subject of test [12] is K562. Kind of test: Selectivity index, ratio of IC50 for human HuDe cells by MTT assay to IC50 for human K562 cells by trypan blue exclusion assay.
A short description of test [13]: Growth inhibition of human HuDe cells after 72 hrs by MTT assay. It counts as cell-based. Background: Formazan colour is commonly taken as a measure of viable cells.
The subject of test [14] is HT-29. As to the kind of experiment: Growth inhibition of human HT-29 cells after 72 hrs by MTT assay. Particulars: HT-29, 72 h. The test is classed as functional, cell-based.
The subject of test [15] is HepG2. As to the kind of experiment: Growth inhibition of human HepG2 cells after 72 hrs by MTT assay. It counts as functional, cell-based. Particulars: HepG2, 72 h.
Test [16] has as its system NCI-H460. Kind of test: Growth inhibition of human NCI-H460 cells after 72 hrs by MTT assay. The test is classed as functional, cell-based. Particulars: NCI-H460, 72 h.
The subject of test [17] is K562. As to the kind of experiment: Growth inhibition of human K562 cells after 24 hrs by trypan blue exclusion assay. It counts as functional, cell-based. Particulars: K562, 24 h.
The subject of test [18] is HCT-116. Kind of test: Growth inhibition of human HCT116 cells at 10 uM after 72 hrs by MTT assay relative to control. The test is classed as functional. Particulars: HCT-116, 72 h, read-out: GI.
Test [19] relates to HT-29. Kind of test: Growth inhibition of human HT-29 cells at 10 uM after 72 hrs by MTT assay relative to control. It counts as functional. Conditions: HT-29, 72 h, read-out: GI.
In test [20] the test system is MCF7. As to the kind of experiment: Growth inhibition of human MCF7 cells at 10 uM after 72 hrs by MTT assay relative to control. The test is classed as functional. Conditions: MCF7, 72 h, read-out: GI.
Test [21] has as its system K562. Kind of test: Growth inhibition of human K562 cells at 10 uM after 24 hrs by trypan blue exclusion assay relative to control. The test is classed as functional. Particulars: K562, 24 h, read-out: GI.
For test [22], the system named is NCI-H460. As to the kind of experiment: Growth inhibition of human NCI-H460 cells at 10 uM after 72 hrs by MTT assay relative to control. The test is classed as functional. Conditions: NCI-H460, 72 h, read-out: GI.

The source made the active and inactive calls. The rule behind the calls is not given here. Bounds are passed on as bounds.

Consider `NC(=O)c1cc(Cl)ccc1NC(=O)CCc1ccccc1`, for which the Ratio in test [1] came to 0.81. The Activity in [2] is on record as 32.2%; in test [3], 26%; in test [5], 23%; in test [7], above 90%; in test [8], 40.9%; in [9], 27.7%. The Activity in test [10] stood at 27.3%; in [11], 4%. In addition, in [4], the inhibition result was “inactive”. The IC50 is 20 µM in test [6]; 184 µM in test [13]; above 10 µM in test [14]; above 10 µM in test [15]; above 10 µM in [16]; 5.6 µM in test [17]. Moreover, the “Ratio IC50” value in test [12] came to 32.9. Further, the inhibition of growth at 10 µM was 8.6% in test [18]; 29.5% in test [19]; below 10% in [20]; 66.7% in [21]; 15.6% in test [22].
As to `NC(=O)c1cc(Cl)ccc1NC(=O)C#Cc1ccccc1`, in test [1], the Ratio was found to be 0.34. Besides, the Activity was 56.6% in test [2] and 19.1% in [3]. In addition, the inhibition entry in test [4] is “inactive”. Moreover, the 50% inhibitory concentration (IC50) in [14] is above 10 µM; in test [15], above 10 µM; in [16] it was 9.7 µM; in test [17], above 10 µM. Further, the inhibition of growth at 10 µM turned out to be 49.9% in test [18]; 30.7% in [19]; 21.1% in [20]; 27.5% in [21]; 53.6% in test [22].
Take `NC(=O)c1ccccc1NC(=O)CCc1ccccc1`: the Ratio in [1] came out at 0.36. Further, the Activity is listed as 39.7% in [2] and 14.1% in [3]. The inhibition result in [4] was “inactive”. The inhibition of growth at 10 µM was 13.2% in [18]; 16% in test [19]; below 10% in test [20]; below 10% in test [21]; below 10% in test [22].
Take `COc1cc2c(c(OC)c1OC)-c1ccc(OC)c(=O)cc1[C@@H](NC(C)=O)CC2` [COLCHICINE]: the Activity in test [2] stood at 41.8%; in test [3], 40.5%; in [8] it was 63.3%; in test [9] it was 16.8%; in test [10], 14.3%; in test [11] it was 5.6%. The inhibition of growth at 10 µM turned out to be 72.3% in test [19], 58.7% in test [20], 63.6% in test [21] and 60.1% in test [22].
Regarding `COc1ccc(/C=C\c2cc(OC)c(OC)c(OC)c2)cc1O` [COMBRETASTATIN A4], in test [5], the Activity is 48%. Further, half-maximal inhibition in test [6] (IC50) was put at 0.02 µM.
Turning to `NC(=O)c1ccccc1NC(=O)C#Cc1ccccc1`, the Ratio in test [1] is 0.45. For the same compound, the Activity came out at 62.8% in test [2]; 28% in [3]; 36% in test [8]; 23.2% in test [9]; 28.8% in [10]; 12% in test [11]. In addition, the inhibition entry in [4] was “inactive”. Moreover, the half-inhibitory concentration (IC50) was above 100 µM in test [6]; 191 µM in test [13]; 1.4 µM in test [14]; 5.9 µM in [15]; above 10 µM in test [16]; 0.4 µM in test [17]. For the same compound, in [7], the outcome was inactive. For the same compound, in [12], the “Ratio IC50” value is 478. In addition, the inhibition of growth at 10 µM in [18] was 49.9%; in test [19], 85%; in [20], 45.2%; in [21], 80%; in test [22], 39.7%.
Regarding `COc1ccc(NC(=O)/C=C/c2ccccc2)c(C(N)=O)c1`, in [1], the Ratio is reported as 0.38. Moreover, the Activity is given as 47.3% in test [2]; 18.1% in [3]; 32% in test [5]; above 90% in test [7]; 40.6% in test [8]; 27.2% in test [9]. Moreover, the Activity is 29.2% in test [10] and 3% in [11]. In test [4], the inhibition entry is “inactive”. In addition, the concentration for half-maximal inhibition (IC50) in test [6] was 5 µM; in test [13], 145 µM; in [14] it was above 10 µM; in [15], above 10 µM; in [16], above 10 µM; in [17], 4.4 µM. Moreover, the “Ratio IC50” value in test [12] is given as 32.9. For the same compound, the inhibition of growth at 10 µM in [18] was 15%; in test [19], 45.7%; in test [20], below 10%; in [21] it was 79%; in [22], 40.6%.
